≈ marks a conversion by molar mass, not a printed value.
How the values were obtained:
Type in all cases: functional
[1] = tested on: Staphylococcus aureus; experiment: Antibacterial activity against Staphylococcus aureus ATCC 6538 measured after 24 hrs by susceptibility assay
[2] = tested on: Staphylococcus epidermidis; experiment: Antibacterial activity against Staphylococcus epidermidis ATCC 12228 measured after 24 hrs by susceptibility assay
[3] = tested on: Staphylococcus aureus; experiment: Antibacterial activity against methicillin-resistant Staphylococcus aureus measured after 24 hrs by susceptibility assay
[4] = tested on: Staphylococcus aureus; experiment: Antibacterial activity against Staphylococcus aureus ATCC 29213 measured after 24 hrs by susceptibility assay

Row | SMILES | MIC [1] [µM] | MIC [2] [µM] | MIC [3] [µM] | MIC [4] [µM]
1 | CN1CCN(C(=O)[C@]23CCC(C)(C)C[C@H]2C2=CC[C@@H]4[C@@]5(C)Cc6c([nH]c7cccc(C(=O)O)c67)C(C)(C)[C@@H]5CC[C@@]4(C)[C@]2(C)CC3)CC1 | > 256 | > 256 | > 256 | > 256
2 | Cc1ccc(S(=O)(=O)NC(=O)[C@]23CCC(C)(C)C[C@H]2C2=CC[C@@H]4[C@@]5(C)Cc6c([nH]c7cccc(C(=O)O)c67)C(C)(C)[C@@H]5CC[C@@]4(C)[C@]2(C)CC3)cc1 | 1 (≈ 0.725 µg/mL) | 4 (≈ 2.9 µg/mL) | 4 (≈ 2.9 µg/mL) | 4 (≈ 2.9 µg/mL)
3 | COc1ccc(S(=O)(=O)NC(=O)[C@]23CCC(C)(C)C[C@H]2C2=CC[C@@H]4[C@@]5(C)Cc6c([nH]c7cccc(C(=O)O)c67)C(C)(C)[C@@H]5CC[C@@]4(C)[C@]2(C)CC3)cc1 | 2 (≈ 1.48 µg/mL) | 4 (≈ 2.96 µg/mL) | 4 (≈ 2.96 µg/mL) | 8 (≈ 5.93 µg/mL)
4 | COc1ccc(S(=O)(=O)NC(=O)[C@]23CCC(C)(C)C[C@H]2C2=CC[C@@H]4[C@@]5(C)Cc6c([nH]c7cc(C(=O)O)ccc67)C(C)(C)[C@@H]5CC[C@@]4(C)[C@]2(C)CC3)cc1 | 1 (≈ 0.741 µg/mL) | 2 (≈ 1.48 µg/mL) | 4 (≈ 2.96 µg/mL) | 4 (≈ 2.96 µg/mL)
5 | CC1(C)CC[C@]2(C(=O)Nc3ccc(-c4ccccc4)cc3)CC[C@]3(C)C(=CC[C@@H]4[C@@]5(C)Cc6c([nH]c7cc(C(=O)O)ccc67)C(C)(C)[C@@H]5CC[C@]43C)[C@@H]2C1 | > 256 | > 256 | > 256 | > 256
6 | CN1CCN(C(=O)[C@]23CCC(C)(C)C[C@H]2C2=CC[C@@H]4[C@@]5(C)CCC(=O)C(C)(C)[C@@H]5CC[C@@]4(C)[C@]2(C)CC3)CC1 | 64 (≈ 34.4 µg/mL) | 64 (≈ 34.4 µg/mL) | > 256 | 32 (≈ 17.2 µg/mL)
7 | CC1(C)CC[C@]2(C(=O)NS(=O)(=O)c3ccc(Cl)cc3)CC[C@]3(C)C(=CC[C@@H]4[C@@]5(C)Cc6c([nH]c7cc(C(=O)O)ccc67)C(C)(C)[C@@H]5CC[C@]43C)[C@@H]2C1 | 0.5 (≈ 0.373 µg/mL) | 1 (≈ 0.745 µg/mL) | 2 (≈ 1.49 µg/mL) | 2 (≈ 1.49 µg/mL)
8 | CN1CCN(C(=O)[C@]23CCC(C)(C)C[C@H]2C2=CC[C@@H]4[C@@]5(C)Cc6c([nH]c7ccc(C(=O)O)cc67)C(C)(C)[C@@H]5CC[C@@]4(C)[C@]2(C)CC3)CC1 | > 256 | > 256 | > 256 | > 256
9 | CN1CCN(C(=O)[C@]23CCC(C)(C)C[C@H]2C2=CC[C@@H]4[C@@]5(C)Cc6c([nH]c7cc(C(=O)O)ccc67)C(C)(C)[C@@H]5CC[C@@]4(C)[C@]2(C)CC3)CC1 | > 256 | 64 (≈ 41.9 µg/mL) | 256 (≈ 167 µg/mL) | > 256
10 | CC1(C)CC[C@]2(C(=O)NS(=O)(=O)c3ccccc3)CC[C@]3(C)C(=CC[C@@H]4[C@@]5(C)Cc6c([nH]c7ccc(Cl)cc67)C(C)(C)[C@@H]5CC[C@]43C)[C@@H]2C1 | > 256 | > 256 | > 256 | > 256
11 | CC1(C)CC[C@]2(C(=O)Nc3ccc(-c4ccccc4)cc3)CC[C@]3(C)C(=CC[C@@H]4[C@@]5(C)Cc6c([nH]c7c(C(=O)O)cccc67)C(C)(C)[C@@H]5CC[C@]43C)[C@@H]2C1 | > 256 | > 256 | > 256 | > 256
12 | CN1CCN(C(=O)[C@]23CCC(C)(C)C[C@H]2C2=CC[C@@H]4[C@@]5(C)Cc6c([nH]c7c(C(=O)O)cccc67)C(C)(C)[C@@H]5CC[C@@]4(C)[C@]2(C)CC3)CC1 | > 256 | 128 (≈ 83.7 µg/mL) | > 256 | > 256
13 | CC(=O)c1ccc2c3c([nH]c2c1)C(C)(C)[C@@H]1CC[C@]2(C)[C@H](CC=C4[C@@H]5CC(C)(C)CC[C@]5(C(=O)NS(=O)(=O)c5ccccc5)CC[C@]42C)[C@@]1(C)C3 | 1 (≈ 0.709 µg/mL) | 2 (≈ 1.42 µg/mL) | 2 (≈ 1.42 µg/mL) | 2 (≈ 1.42 µg/mL)
14 | CC1(C)CC[C@]2(C(=O)NS(=O)(=O)c3ccccc3)CC[C@]3(C)C(=CC[C@@H]4[C@@]5(C)Cc6c([nH]c7ccc(F)cc67)C(C)(C)[C@@H]5CC[C@]43C)[C@@H]2C1 | > 256 | > 256 | > 256 | > 256
15 | CC1(C)CC[C@]2(C(=O)NS(=O)(=O)c3ccc(C(=O)O)cc3)CC[C@]3(C)C(=CC[C@@H]4[C@@]5(C)CCC(=O)C(C)(C)[C@@H]5CC[C@]43C)[C@@H]2C1 | 64 (≈ 40.8 µg/mL) | 256 (≈ 163 µg/mL) | 256 (≈ 163 µg/mL) | 128 (≈ 81.6 µg/mL)
16 | Cc1ccc(S(=O)(=O)NC(=O)[C@]23CCC(C)(C)C[C@H]2C2=CC[C@@H]4[C@@]5(C)CCC(=O)C(C)(C)[C@@H]5CC[C@@]4(C)[C@]2(C)CC3)cc1 | > 256 | > 256 | > 256 | > 256

From ChEMBL document CHEMBL5608189, “Design and synthesis of unique indole-benzosulfonamide oleanolic acid derivatives as potent antibacterial agents against MRSA” (Eur J Med Chem, 2024)
